Data on ten compounds can be found in US9493446B2, “Orexin receptor antagonists which are [ortho bi-(hetero-)aryl]-[2-(meta bi-(hetero-)aryl)-pyrrolidin-1-yl]-methanone derivatives” (Actelion Pharmaceuticals Ltd, priority 2012, dated 2016).

The target of one test is human orexin-2 receptor (Homo sapiens (Human), UniProt O43614). Put plainly: Intracellular calcium measurement (FLIPR), CHO cells expressing human orexin-2 receptor, 3 nM orexin-A. The class given is cell-based. The note with it: CHO cells expressing human orexin-2 receptor, FLIPR, 3 nM orexin-A; geometric mean if determined several times; read-out: IC50 OX2. The method, boiled down: (§1)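 Fluo-4 AM-loaded CHO cells; antagonist preincubation 120 min, then 3 nM orexin-A (final) in HBSS/0.1% BSA/20 mM HEPES. FLIPR read at 1 s intervals; peak height vs. agonist-plus-vehicle control → IC50.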
Sequence of human orexin-2 receptor (O43614 whole entry): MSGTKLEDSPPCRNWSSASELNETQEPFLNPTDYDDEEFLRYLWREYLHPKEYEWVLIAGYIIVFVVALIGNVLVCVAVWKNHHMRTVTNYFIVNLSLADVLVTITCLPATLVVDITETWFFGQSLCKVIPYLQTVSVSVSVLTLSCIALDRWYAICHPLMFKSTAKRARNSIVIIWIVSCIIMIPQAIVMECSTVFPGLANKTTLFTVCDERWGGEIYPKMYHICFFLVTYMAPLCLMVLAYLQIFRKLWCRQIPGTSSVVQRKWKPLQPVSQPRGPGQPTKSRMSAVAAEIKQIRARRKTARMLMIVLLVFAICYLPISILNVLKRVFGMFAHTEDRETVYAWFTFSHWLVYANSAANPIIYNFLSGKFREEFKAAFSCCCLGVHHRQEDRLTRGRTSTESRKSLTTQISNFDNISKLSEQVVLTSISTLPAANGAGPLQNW
In general terms: Calcium assays in cells follow changes in intracellular calcium, usually with a dye or a luminescent sensor.

A further test addresses orexin-1 (Homo sapiens (Human), UniProt O43613). Put plainly: Intracellular calcium measurement (FLIPR), CHO cells expressing human orexin-1 receptor, 3 nM orexin-A. The note with it: CHO cells expressing human orexin-1 receptor, FLIPR, 3 nM orexin-A; geometric mean if determined several times; read-out: IC50 OX1. The class given is cell-based. The method, boiled down:
as §1

Sequence of orexin-1 (O43613 whole entry): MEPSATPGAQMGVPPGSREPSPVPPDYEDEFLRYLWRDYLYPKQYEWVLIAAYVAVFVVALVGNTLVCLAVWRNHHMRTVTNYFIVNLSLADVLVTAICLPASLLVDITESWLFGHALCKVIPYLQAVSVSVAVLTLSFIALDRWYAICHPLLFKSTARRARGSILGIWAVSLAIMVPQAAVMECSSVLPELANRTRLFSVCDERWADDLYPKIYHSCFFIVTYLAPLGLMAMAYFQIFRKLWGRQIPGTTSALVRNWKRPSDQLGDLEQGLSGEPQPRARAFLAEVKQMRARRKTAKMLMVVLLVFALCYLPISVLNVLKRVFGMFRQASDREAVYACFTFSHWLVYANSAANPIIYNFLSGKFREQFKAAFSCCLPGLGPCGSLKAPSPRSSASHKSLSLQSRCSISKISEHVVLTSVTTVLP

Turning to `COc1cc(C(=O)N2CCC[C@H]2c2nc(-c3cccc(F)c3OC)no2)c(-n2nccn2)cc1OC` [compound 208, (4,5-Dimethoxy-2-[1,2,3]triazol-2-yl-phenyl)-{(S)-2-[3-(3-fluoro-2-methoxy-phenyl)-[1,2,4]oxadiazol-5-yl]-pyrrolidin-1-yl}-methanone], the IC50 (as a rule, the concentration needed to halve the response being measured) at human orexin-2 receptor is 0.02 µM; at orexin-1, 0.225 µM.
On the same counts, the results for `CCOc1ccccc1-c1nc([C@@H]2CCCN2C(=O)c2cc(OC)c(C)cc2-n2nccn2)no1` [compound 309, {(S)-2-[5-(2-Ethoxy-phenyl)-[1,2,4]oxadiazol-3-yl]-pyrrolidin-1-yl}-(5-methoxy-4-methyl-2-[1,2,3]triazol-2-yl-phenyl)-methanone] are 0.001 µM and 0.013 µM.
`Cc1cc(F)cc(C(=O)N2CCC[C@H]2c2nc(-c3ccccc3OC(F)(F)F)no2)c1-n1nccn1` [compound 176, (5-Fluoro-3-methyl-2-[1,2,3]triazol-2-yl-phenyl)-{(S)-2-[3-(2-trifluoromethoxy-phenyl)-[1,2,4]oxadiazol-5-yl]-pyrrolidin-1-yl}-methanone]: the results for the half-inhibitory concentration (IC50) on human orexin-2 receptor and at orexin-1 were 0.151 µM and 0.258 µM, respectively.
Taken in the same sequence, the figures for `CCOc1ccccc1-c1noc([C@@H]2CCCN2C(=O)c2nc(C)ccc2-n2nccn2)n1` [compound 259, {(S)-2-[3-(2-Ethoxy-phenyl)-[1,2,4]oxadiazol-5-yl]-pyrrolidin-1-yl}-(6-methyl-3-[1,2,3]triazol-2-yl-pyridin-2-yl)-methanone] were 0.099 µM and 0.352 µM.
On the same counts, the results for `COc1cccc(-c2noc([C@@H]3CCCN3C(=O)c3cc(C)ccc3-n3nccn3)n2)c1OC` [compound 59, {(S)-2-[3-(2,3-Dimethoxy-phenyl)-[1,2,4]oxadiazol-5-yl]-pyrrolidin-1-yl}-(5-methyl-2-[1,2,3]triazol-2-yl-phenyl)-methanone] are 0.047 µM and 1.22 µM.
Taken in the same sequence, the figures for `COc1c(F)cccc1-c1noc([C@@H]2CCCN2C(=O)c2cc(F)cc(C)c2-n2nccn2)n1` [compound 207, {(S)-2-[3-(3-Fluoro-2-methoxy-phenyl)-[1,2,4]oxadiazol-5-yl]-pyrrolidin-1-yl}-(5-fluoro-3-methyl-2-[1,2,3]triazol-2-yl-phenyl)-methanone] were 0.565 µM and 1.81 µM.
In the case of `COc1ccc(-n2nccn2)c(C(=O)N2CCC[C@H]2c2nc(-c3ccccc3OC(F)(F)F)no2)c1F` [compound 144, (2-Fluoro-3-methoxy-6-[1,2,3]triazol-2-yl-phenyl)-{(S)-2-[3-(2-trifluoromethoxy-phenyl)-[1,2,4]oxadiazol-5-yl]-pyrrolidin-1-yl}-methanone], the IC50 came out at 0.083 µM on human orexin-2 receptor and 0.026 µM on orexin-1.
For `Cc1ccc(-c2ccccc2)c(C(=O)N2CCC[C@@]2(C)c2nnc(-c3ccccc3OC(F)(F)F)[nH]2)c1` [compound 549, (4-Methyl-biphenyl-2-yl)-{(S)-2-methyl-2-[5-(2-trifluoromethoxy-phenyl)-4H-[1,2,4]triazol-3-yl]-pyrrolidin-1-yl}-methanone], the IC50 at human orexin-2 receptor stood at 0.064 µM; at orexin-1, 0.031 µM.
On the same counts, the results for `O=C(c1ccccc1-c1ncco1)N1CCC[C@H]1c1nc(-c2ccccc2OC(F)(F)F)no1` [compound 171, (2-Oxazol-2-yl-phenyl)-{(S)-2-[3-(2-trifluoromethoxy-phenyl)-[1,2,4]oxadiazol-5-yl]-pyrrolidin-1-yl}-methanone] are 0.03 µM and 0.104 µM.
As for `Cc1ccc(-n2nccn2)c(C(=O)N2CCC[C@H]2c2nc(-c3c[nH]c4ccccc34)no2)c1` [compound 15, {(S)-2-[3-(1H-Indol-3-yl)-[1,2,4]oxadiazol-5-yl]-pyrrolidin-1-yl}-(5-methyl-2-[1,2,3]triazol-2-yl-phenyl)-methanone], the IC50 at human orexin-2 receptor came to 0.008 µM; on orexin-1, 0.021 µM.
